32 compounds from ChEMBL document CHEMBL1124376, “Topically active carbonic anhydrase inhibitors. 2. Benzo[b]thiophenesulfonamide derivatives with ocular hypotensive activity” (J Med Chem, 1989) can be followed below.

Test [1] deals with T1, Carbonic anhydrase 2 (Homo sapiens, UniProt P00918).
Description: 50% inhibition of human carbonic anhydrase II assayed by CO2 hydration catalyzed by human erythrocytes
The test system of test [2] is Oryctolagus cuniculus. Kind of test: Reduction in maximum Intra ocular pressure in the rabbit model of ocular hypertension, when treated with a minimum effective topical dose of 0.25%.
For test [3], the target named is T1, Carbonic anhydrase 2. Nature of the test: Concentration of inhibitor required to reduce the rate of carbonic anhydrase II catalyzed CO2 hydration by 50%. The conditions noted are these: read-out: I50.
For test [4], the system named is Oryctolagus cuniculus. Nature of the test: Reduction in maximum Intra ocular pressure in the rabbit model of ocular hypertension, when treated with a minimum effective topical dose of 0.05%.
For test [5], the system named is Oryctolagus cuniculus. Kind of test: Reduction in maximum Intra ocular pressure in the rabbit model of ocular hypertension, when treated with a minimum effective topical dose of 10%; NE means No Effect. The note with it: Eye.
Test [6] deals with Oryctolagus cuniculus. Kind of test: Reduction in maximum Intra ocular pressure in the rabbit model of ocular hypertension, when treated with a minimum effective topical dose of 0.10%.
Test [7] has as its system Oryctolagus cuniculus. Nature of the test: Reduction in maximum Intra ocular pressure in the rabbit model of ocular hypertension, when treated with a minimum effective oral dose of 1.25 mg/kg. In kind it is functional, Eye.
Test [8] deals with Oryctolagus cuniculus. Kind of test: Reduction in maximum Intra ocular pressure in the rabbit model of ocular hypertension, when treated with a minimum effective topical dose of 0.10%. The source holds these as a separate data set.
Test [9] has as its system Oryctolagus cuniculus. Nature of the test: Reduction in maximum Intra ocular pressure in the rabbit model of ocular hypertension, when treated with a minimum effective oral dose of 10 mg/Kg; NE is No Effect. In kind it is functional, organism-based. The note with it: Eye.
For test [10], the system named is Oryctolagus cuniculus. Nature of the test: Reduction in maximum Intra ocular pressure in the rabbit model of ocular hypertension, when treated with a minimum effective topical dose of 5%.
Test [11] concerns Oryctolagus cuniculus. Kind of test: Reduction in maximum Intra ocular pressure in the rabbit model of ocular hypertension, when treated with a minimum effective topical dose of 10%.

The source made the active and inactive calls. The rule behind the calls is not given here.

In the case of `Nc1ccc2cc(S(N)(=O)=O)sc2c1`, the IC50 in test [1] was 10 nM. Same read-out and setting: to `CN(C)CCSCc1ccc2sc(S(N)(=O)=O)cc2c1` belongs 15 nM; to `NS(=O)(=O)c1cc2ccccc2s1`, 5.2 nM; to `CC(=O)Nc1ccc2cc(S(N)(=O)=O)sc2c1`, 4.8 nM. The same measure, in the same setting: to `NS(=O)(=O)c1cc2cc(CN3CCOCC3)ccc2s1` belongs 15 nM; to `CC(C)(C)NCC(O)COc1ccc2cc(S(N)(=O)=O)sc2c1` (configuration not stated), 18 nM. On the same count and under the same terms, to `NS(=O)(=O)c1cc2ccc(OP(=O)(O)O)cc2s1` belongs 100 nM; to `NS(=O)(=O)c1cc2c(O)cccc2s1`, 12 nM; to `NS(=O)(=O)c1cc2cccc(O)c2s1`, 11 nM. On to `CC(C)(C)C(=O)Oc1ccc2nc(S(N)(=O)=O)sc2c1`, for which, in [2], the Activity is listed as -7.8 mmHg. As for `CC(C)COC(=O)Oc1ccc2cc(S(N)(=O)=O)sc2c1`, the IC50 in test [1] was 5.6 nM. Still for that read-out and setting: to `COc1ccc2cc(S(N)(=O)=O)sc2c1` belongs 8.8 nM; to `NS(=O)(=O)c1cc2cc(CO)ccc2s1`, 9 nM.

As for `CC(C)(C)C(=O)Oc1ccc2cc(S(N)(=O)=O)sc2c1`, the IC50 in test [3] came out at 2.6 nM. The compound further yielded an Activity in test [4] of -4.7 mmHg.

For `CCOc1ccc2nc(S(N)(=O)=O)sc2c1`, in test [5], the result was inactive. For the compound `CN(C)C(=O)Oc1ccc2sc(S(N)(=O)=O)cc2c1`, the IC50 in test [1] was 5 nM. The same measure, in the same setting: the figure for `CC(=O)c1ccc2cc(S(N)(=O)=O)sc2c1` is 6 nM; for `NS(=O)(=O)c1cc2ccc(OS(=O)(=O)O)cc2s1` it is 6.8 nM. Same read-out and setting: to `CC(C)(C)N1CC(COc2ccc3cc(S(N)(=O)=O)sc3c2)OC1=O` (configuration not stated) belongs 8 nM.

Take `NS(=O)(=O)c1cc2ccc(O)cc2s1`: the Activity in test [6] is recorded as -6.6 mmHg; in [7], -7.7 mmHg; in test [4] it was -5.6 mmHg. In [1], `COCc1ccc2sc(S(N)(=O)=O)cc2c1` gave an IC50 of 9 nM. On the same count and under the same terms, to `COc1ccc2sc(S(N)(=O)=O)cc2c1` belongs 23 nM. Still for that read-out and setting: the figure for `CC(=O)OCc1ccc2sc(S(N)(=O)=O)cc2c1` is 10 nM.

For the compound `CC(=O)Oc1ccc2cc(S(N)(=O)=O)sc2c1`, in test [3], the IC50 was determined as 4 nM. In test [8], this compound returned an Activity of -5.3 mmHg. As for `CC(=O)Nc1nnc(S(N)(=O)=O)s1` [ACETAZOLAMIDE], the result in test [9] was inactive. Also, the Activity in test [7] was -6.3 mmHg. Compound `NS(=O)(=O)c1cc2cc(O)ccc2s1` showed an IC50 in [1] of 6.2 nM. The same measure, in the same setting: the figure for `COc1cccc2sc(S(N)(=O)=O)cc12` is 12 nM; for `CN(C)Cc1ccc2sc(S(N)(=O)=O)cc2c1` it is 12 nM.

In turn, `COc1cccc2cc(S(N)(=O)=O)sc12` had an IC50 in test [1] of 50 nM.

For the compound `CC(=O)/N=c1/sc(S(N)(=O)=O)nn1C` [METHAZOLAMIDE], the Activity in test [10] was -5.1 mmHg. As for `NS(=O)(=O)c1cc2ccc(OCC(=O)O)cc2s1`, in test [1], the IC50 was 14 nM.

In [11], `NS(=O)(=O)c1cc(Cl)c(Cl)c(S(N)(=O)=O)c1` [DICHLORPHENAMIDE] registered an Activity of -4.7 mmHg.
